One experiment addresses PTGER2 (EP2) (Homo sapiens, UniProt P43116). The experiment is described as follows: cell-based.
The target of the next experiment is PTRGER4 (EP4) (Homo sapiens, UniProt P35408). The experiment is described as follows: cell-based.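 Further: assay plate preincubated 15 min at 37 °C, after which PGE2 was added at 20 nM final and incubation continued 120 min at 37 °C.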
Chain of PTRGER4 (EP4) (P35408 whole entry): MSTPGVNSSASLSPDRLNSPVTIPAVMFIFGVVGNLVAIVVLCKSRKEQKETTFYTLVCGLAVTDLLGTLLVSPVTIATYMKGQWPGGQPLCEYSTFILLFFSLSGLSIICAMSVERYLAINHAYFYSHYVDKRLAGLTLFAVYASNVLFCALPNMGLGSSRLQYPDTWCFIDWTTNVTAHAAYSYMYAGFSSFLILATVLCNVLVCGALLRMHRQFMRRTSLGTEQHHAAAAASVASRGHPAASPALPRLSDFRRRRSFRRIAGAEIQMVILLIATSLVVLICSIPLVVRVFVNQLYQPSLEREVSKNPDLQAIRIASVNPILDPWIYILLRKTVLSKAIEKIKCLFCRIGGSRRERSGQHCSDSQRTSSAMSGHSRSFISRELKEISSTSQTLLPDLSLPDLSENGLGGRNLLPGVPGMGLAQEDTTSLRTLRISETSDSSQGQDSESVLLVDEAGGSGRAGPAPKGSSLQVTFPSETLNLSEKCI

Chain of PTGER2 (EP2) (P43116 whole entry): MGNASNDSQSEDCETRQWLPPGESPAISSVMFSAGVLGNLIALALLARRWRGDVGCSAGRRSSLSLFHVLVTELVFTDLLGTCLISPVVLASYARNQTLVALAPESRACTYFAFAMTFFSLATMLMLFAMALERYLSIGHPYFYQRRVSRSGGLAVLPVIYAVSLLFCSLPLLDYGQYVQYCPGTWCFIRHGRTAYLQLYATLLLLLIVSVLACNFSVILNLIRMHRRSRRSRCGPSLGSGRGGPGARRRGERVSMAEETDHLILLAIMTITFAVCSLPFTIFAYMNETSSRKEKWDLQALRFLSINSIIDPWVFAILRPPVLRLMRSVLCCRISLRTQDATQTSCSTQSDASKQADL

In the case of `CC(C)Oc1cc(-c2cc(NCCc3c(F)cc(Br)cc3F)ncn2)ccc1C(=O)O` [Example 251, 4-{6-[2-(4-Bromo-2,6-difluoro-phenyl)-ethylamino]-pyrimidin-4-yl}-2-isopropoxy-benzoic acid], the 50% inhibitory concentration (IC50) against PTGER2 (EP2) was determined as 0.254 µM; at PTRGER4 (EP4) it was 0.831 µM.
Turning to `O=c1[nH]c2ccc(-c3cc(NCCc4c(F)cc(Br)cc4F)ncn3)cc2o1` [Example 266, 6-{6-[2-(4-Bromo-2,6-difluoro-phenyl)-ethylamino]-pyrimidin-4-yl}-3H-benzooxazol-2-one], the 50% inhibitory concentration (IC50) against PTGER2 (EP2) is 0.065 µM; against PTRGER4 (EP4) it was 0.368 µM.
On the same counts, the results for `CCCc1cc(-c2cc(NCCc3c(F)cc(Br)cc3F)ncn2)ccc1C(N)=O` [Example 303, 4-{6-[2-(4-Bromo-2,6-difluoro-phenyl)-ethylamino]-pyrimidin-4-yl}-2-propyl-benzamide] are 0.044 µM and 0.163 µM.
On the same counts, the results for `Fc1cc(Br)cc(F)c1CCNc1cc(-c2ccc3[nH]ncc3c2)ncn1` [Example 267, [2-(4-Bromo-2,6-difluoro-phenyl)-ethyl]-[6-(1H-indazol-5-yl)-pyrimidin-4-yl]amine] are 0.07 µM and 0.183 µM.
On the same counts, the results for `CCCOc1cc(-c2cc(NCCc3cc(C)c(C)cc3OC)ncn2)ccc1CC(=O)O` [Example 194, (4-{6-[2-(2-Methoxy-4,5-dimethyl-phenyl)-ethylamino]-pyrimidin-4-yl}-2-propoxy-phenyl)-acetic acid] are 0.548 µM and 0.207 µM.
In the case of `COC(=O)Nc1ccc(-c2cc(NCCc3c(F)cc(Br)cc3F)ncn2)cc1` [Example 313, (4-{6-[2-(4-Bromo-2,6-difluoro-phenyl)-ethylamino]-pyrimidin-4-yl}-phenyl)-carbamic acid methyl ester], the IC50 was 0.143 µM at PTGER2 (EP2) and 0.333 µM on PTRGER4 (EP4).
`CCOc1cc(-c2cc(NCCc3c(F)cc(Br)cc3F)ncn2)ccc1NCC(=O)O` [Example 182, (4-{6-[2-(4-Bromo-2,6-difluoro-phenyl)-ethylamino]-pyrimidin-4-yl}-2-ethoxy-phenylamino)-acetic acid]: the IC50 amounted to 0.163 µM at PTGER2 (EP2) and 0.208 µM against PTRGER4 (EP4).
For `CCOC(=O)CCc1sc(-c2cc(NCCc3c(F)cc(Br)cc3F)ncn2)cc1OCC` [Example 247, 3-(5-{6-[2-(4-Bromo-2,6-difluoro-phenyl)-ethylamino]-pyrimidin-4-yl}-3-ethoxy-thiophen-2yl)-propionic acid ethyl ester], the figures for the IC50 against PTGER2 (EP2) and on PTRGER4 (EP4) were 0.799 µM and 0.278 µM, respectively.
On the same counts, the results for `CCOc1cc(-c2cc(NCCc3c(F)cc(Br)cc3F)ncn2)ccc1-c1noc(=S)[nH]1` [Example 290, 3-(4-{6-[2-(4-Bromo-2,6-difluoro-phenyl)-ethylamino]-pyrimidin-4-yl}-2-ethoxy-phenyl)-[1,2,4]oxadiazole-5(4H)-thione] are 0.048 µM and 0.028 µM.
On the same counts, the results for `CCn1cc(-c2cc(NCCc3c(F)cc(Br)cc3F)ncn2)cc1C(=O)O` [Example 269, 4-{6-[2-(4-Bromo-2,6-difluoro-phenyl)-ethylamino]-pyrimidin-4-yl}-1-ethyl-1H-pyrrole-2-carboxylic acid] are 0.258 µM and 0.768 µM.
For `COc1cc(OC(F)F)ccc1CCNc1cc(-c2ccc(C(=O)O)c(SC)c2)ncn1` [Example 221, 4-{6-[2-(4-Difluoromethoxy-2-methoxy-phenyl)-ethylamino]-pyrimidin-4-yl}-2-methylsulfanyl-benzoic acid], the IC50 at PTGER2 (EP2) was determined as 0.092 µM; against PTRGER4 (EP4), 0.268 µM.
In the same order, the values of `CCOc1cc(-c2cc(NCCc3c(F)cc(C(F)(F)F)cc3OC)ncn2)ccc1C(=O)O` [Example 226, 2-Ethoxy-4-{6-[2-(2-fluoro-6-methoxy-4-trifluoromethyl-phenyl)-ethylamino]-pyrimidin-4-yl}-benzoic acid] are 0.907 µM and 0.273 µM.
With `CCCc1cc(-c2cc(NCCc3c(F)cc(Br)cc3F)ncn2)ccc1C(=O)NCC` [Example 305, 4-{6-[2-(4-Bromo-2,6-difluoro-phenyl)-ethylamino]-pyrimidin-4-yl}-N-ethyl-2-propyl-benzamide], the figures for the IC50 at PTGER2 (EP2) and against PTRGER4 (EP4) were 0.203 µM and 0.628 µM, respectively.
As to `CCOc1cc(-c2cc(NCCc3c(F)cc(Br)cc3F)ncn2)ccc1C1(C(=O)O)CC1` [Example 171, 1-(4-{6-[2-(4-Bromo-2,6-difluoro-phenyl)-ethylamino]-pyrimidin-4-yl}-2-ethoxy-phenyl)-cyclopropanecarboxylic acid], the concentration for half-maximal inhibition (IC50) against PTGER2 (EP2) was found to be 0.68 µM; on PTRGER4 (EP4), 0.582 µM.
In the same order, the values of `CCOc1cc(-c2cc(NCCc3cc(Cl)c(C(F)(F)F)cc3OC)ncn2)ccc1C(=O)O` [Example 195, 4-{6-[2-(5-Chloro-2-methoxy-4-trifluoromethyl-phenyl)-ethylamino]-pyrimidin-4-yl}-2-ethoxy-benzoic acid] are 0.837 µM and 0.269 µM.
In the case of `COc1cc(F)c(CCNc2cc(-c3ccc(C(=O)O)c(SC)c3)ncn2)c(F)c1` [Example 229, 4-{6-[2-(2,6-Difluoro-4-methoxy-phenyl)-ethylamino]-pyrimidin-4-yl}-2-methylsulfanyl-benzoic acid], the IC50 against PTGER2 (EP2) was determined as 0.081 µM; at PTRGER4 (EP4), 0.273 µM.
In the same order, the values of `CCCc1cc(-c2cc(NCCc3cc(C)c(C)cc3OC)ncn2)ccc1C(=O)O` [Example 189] are 0.295 µM and 0.338 µM.
In the same order, the values of `CCCc1cc(-c2cc(NCCc3c(F)cc(Br)cc3F)ncn2)ccc1C(=O)NCC(C)(C)O` [Example 308, 4-{6-[2-(4-Bromo-2,6-difluoro-phenyl)-ethylamino]-pyrimidin-4-yl}-N-(2-hydroxy-2-methyl-propyl)-2-propyl-benzamide] are 0.156 µM and 0.164 µM.
In the same order, the values of `O=C(O)Cc1ccc(-c2cc(NCCc3c(F)cc(Br)cc3F)ncn2)cc1OC(F)(F)F` [Example 236, (4-{6-[2-(4-Bromo-2,6-difluoro-phenyl)-ethylamino]-pyrimidin-4-yl}-2-trifluoromethoxy-phenyl)-acetic acid] are 0.265 µM and 0.351 µM.
`COc1cc(C)c(C)cc1CCNc1cc(-c2ccc(CC(=O)O)c(SC)c2)ncn1` [Example 191, (4-{6-[2-(2-Methoxy-4,5-dimethyl-phenyl)-ethylamino]-pyrimidin-4-yl}-2-methylsulfanyl-phenyl)-acetic acid]: the IC50 at PTGER2 (EP2) was found to be 0.322 µM; against PTRGER4 (EP4) it was 0.145 µM.
In the same order, the values of `CCCc1cc(-c2cc(NCCc3c(F)cc(Br)cc3F)ncn2)ccc1C1(C(=O)O)CC1` [Example 172, 1-(4-{6-[2-(4-Bromo-2,6-difluoro-phenyl)-ethylamino]-pyrimidin-4-yl}-2-propyl-phenyl)-cyclopropanecarboxylic acid] are 0.44 µM and 0.401 µM.
In the same order, the values of `CCc1cc(-c2cc(NCCc3c(F)cc(Br)cc3F)ncn2)ccc1C(=O)O` [Example 249, 4-{6-[2-(4-Bromo-2,6-difluoro-phenyl)-ethylamino]-pyrimidin-4-yl}-2-ethyl-benzoic acid] are 0.11 µM and 0.467 µM.
Turning to `CCOc1cc(-c2cc(NCCc3cc(C)c(C)cc3OC)ncn2)ccc1CC(=O)O` [Example 190, (2-Ethoxy-4-{6-[2-(2-methoxy-4,5-dimethyl-phenyl)-ethylamino]-pyrimidin-4-yl}-phenyl)-acetic acid], the IC50 was determined as 0.486 µM on PTGER2 (EP2) and 0.181 µM at PTRGER4 (EP4).
On the same counts, the results for `CCOc1cc(-c2cc(NCCc3cc(F)c(C(F)F)cc3OC)ncn2)ccc1C(=O)O` [Example 183, 4-{6-[2-(4-Difluoromethyl-5-fluoro-2-methoxy-phenyl)-ethylamino]-pyrimidin-4-yl}-2-ethoxy-benzoic acid] are 0.695 µM and 0.661 µM.
In the same order, the values of `OCCOc1ccc(-c2cc(NCCc3c(F)cc(Br)cc3F)ncn2)cc1` [Example 311, 2-(4-{6-[2-(4-Bromo-2,6-difluoro-phenyl)-ethylamino]-pyrimidin-4-yl}-phenoxy)-ethanol] are 0.216 µM and 0.776 µM.
In the same order, the values of `CCCc1cc(-c2cc(NCCc3ccc(C(F)(F)F)cc3OC)ncn2)ccc1C(=O)O` [Example 207, 4-{6-[2-(2-Methoxy-4-trifluoromethyl-phenyl)-ethylamino]-pyrimidin-4-yl}-2-propyl-benzoic acid] are 0.721 µM and 0.491 µM.
As to `CCCc1cc(-c2cc(NCCc3c(F)cc(Br)cc3F)ncn2)ccc1C(=O)NCCOC` [Example 307, 4-{6-[2-(4-Bromo-2,6-difluoro-phenyl)-ethylamino]-pyrimidin-4-yl}-N-(2-methoxy-ethyl)-2-propyl-benzamide], the IC50 at PTGER2 (EP2) came to 0.219 µM; at PTRGER4 (EP4), 0.781 µM.
On the same counts, the results for `CCCc1cc(-c2cc(NCCc3c(C)cc(C)cc3OC)ncn2)ccc1C(=O)O` [Example 201, 4-{6-[2-(2-Methoxy-4,6-dimethyl-phenyl)-ethylamino]-pyrimidin-4-yl}-2-propyl-benzoic acid] are 0.14 µM and 0.482 µM.
On the same counts, the results for `O=CNc1ccc(-c2cc(NCCc3c(F)cc(Br)cc3F)ncn2)cc1` [Example 238, N-(4-{6-[2-(4-Bromo-2,6-difluoro-phenyl)-ethylamino]-pyrimidin-4-yl}-phenyl)-formamide] are 0.251 µM and 0.438 µM.
In the same order, the values of `O=C(O)c1coc2cc(-c3cc(NCCc4c(F)cc(Br)cc4F)ncn3)ccc12` [Example 272, 6-{6-[2-(4-Bromo-2,6-difluoro-phenyl)-ethylamino]-pyrimidin-4-yl}-benzofuran-3-carboxylic acid] are 0.174 µM and 0.426 µM.
Turning to `CCOc1cc(-c2cc(NCCc3c(C)cc(C)cc3OC)ncn2)ccc1CC(=O)O` [Example 202, (2-Ethoxy-4-{6-[2-(2-methoxy-4,6-dimethyl-phenyl)-ethylamino]-pyrimidin-4-yl}-phenyl)-acetic acid], the half-maximal inhibitory concentration (IC50) against PTGER2 (EP2) amounted to 0.597 µM; against PTRGER4 (EP4) it was 0.365 µM.

These data come from patent US11712438B2, “Phenyl derivatives as PGE2 receptor modulators” (IDORSIA PHARMACEUTICALS LTD, priority 2017, dated 2023).
